Experimental data: patent US20160050920A1, “METHODS TO IMPROVE NODAL ROOTS” (Valent BioSciences Corporation, priority 2014, published 2016)

How the values were obtained:
Type in all cases: in vivo
Hybrid corn [1] = test: Example 1: potted hybrid corn, newest nodal roots after GA3 foliar spray
Text: Hybrid corn seed was planted 3.8 centimeters (cm) deep on three separate dates in Miracle-Gro Potting Mix (Miracle-Grois a registered trademark owned by OMS Investments, Inc., Miracle-Gro Potting Mix is widely available at retail home improvement stores) in 2.5 gallon pots. The pots were filled with 0.007 cubic meters of potting mix. The seeds/plants were watered as needed. The second planting was 10 days after the first planting and the third planting was nine days after the second planting. The plants were treated with 0, 8.4 g ai/hectare, or 16.8 g ai/hectare of GA3 as formulated in RyzUp SmartGrass° (available from Valent BioSciences Corp.) using a TeeJet® 8002 VS spray tip on a manual sprayer set at 15 gallons per acre. Distilled water was used and non-ionic surfactant (0.25% v/v). The treatments were applied on the same day which was 28 days after the first planting (corn was at V6 stage), 18 days after the second planting (corn was at V3 or V4 stages), and 9 days after the third planting (corn was at V1 stage). Crop Heat Units are a way of calculating growth and are calculated on a daily basis, using the maximum (Tmax) and minimum (Tmin) daily air temperatures, measured from midnight to midnight, in degrees Celsius. The Crop Heat Unit (CHU) system uses the following equation which allows growers to more accurately predict the growth of crops compared to using calendar days: Tmax+Tmin÷2−Tbase, wherein Tbase is the base temperature for the crop. During this study, there were a few days following the treatments with temperatures exceeding 24 degrees Celsius and the nights dipped below 10 degrees Celsius. The week immediately following treatment, there was one day above 24 degrees Celsius, each night dipped below 10 degrees Celsius. […] The growth rate of corn also declines when temperatures are above 30 degrees Celsius. In this study, there was an average of 10 CHUs per day following treatment and a total of 83CHUs. The corn was harvested at 1, 2, and 3 weeks after treatment. The plants were washed and roots were separated from shoots.

Hybrid corn [2] = test: Example 4: field study, number and dry weight of roots in two corn hybrids; design: Dry weight of nodes 1 to 3 / Dry weight of nodes 4 to 7 / Total dry weight: unit not given here
Protocol: Another field study was conducted in order to determine the effects of GA3 on root development. Two types of hybrid corn seeds were planted during the spring season. The plants were treated with 0 or 2.75g ai/hectare of GA3 as formulated in RyzUp SmartGrass® using a TeeJet° 8002 VS spray tip on a manual sprayer set at 15 gallons per acre. Distilled water was used and non-ionic surfactant (0.25% v/v). The treatments were applied when the corn was at the V4 stage of development. The plants were then destructively harvested 32 days after treatments and their number of roots, dry weight, and dry weight of nodal roots were evaluated.

Hybrid corn [3] = test: Example 3: field study, root count of hybrid corn; conditions: 2.75 g ai/hectare at V4
Protocol: A field study was conducted in order to determine the effects of GA3 on root development. Hybrid corn seeds were planted and were treated when the corn was at the V4 stage of development sixteen days after planting. The treatments were 0 or 2.75g ai/hectare of GA3 as formulated in RyzUp SmartGrass® using a TeeJet® 8002 VS spray tips with a backpack sprayer set at 15 gallons per acre. Distilled water was used and non-ionic surfactant (0.25% v/v). The plants were then destructively harvested and their root count was evaluated.

[4] = Hybrid 1, 2.75 g ai/hectare at V4, 32 days after treatment
[5] = Hybrid 2, 2.75 g ai/hectare at V4, 32 days after treatment

## C=C1C[C@]23C[C@@]1(O)CC[C@H]2[C@@]12C=C[C@H](O)[C@@](C)(C(=O)O1)[C@H]2[C@@H]3C(=O)O [GA3, gibberellic acid]
Hybrid corn [1]; 8.4 g ai/ha GA3
  # of newest nodal roots exposed/6 plants: 29
  # of newest nodal roots exposed/plant: 4.8
  # of newest nodal roots exposed/plant with newest nodal roots present: 5.8
  cm of newest nodal roots exposed/plant: 4.2 cm
  cm of newest nodal roots exposed/plant with newest nodal roots: 5.0 cm
Hybrid corn [1]; 8.4 g ai/ha GA3, foliar spray
  % of plants with newest nodal roots exposed: 83%
Hybrid corn [1]; 16.8 g ai/ha GA3
  # of newest nodal roots exposed/6 plants: 33
  # of newest nodal roots exposed/plant: 5.5
  # of newest nodal roots exposed/plant with newest nodal roots present: 5.5
  cm of newest nodal roots exposed/plant: 5.3 cm
  cm of newest nodal roots exposed/plant with newest nodal roots: 5.3 cm
Hybrid corn [1]; 16.8 g ai/ha GA3, foliar spray
  % of plants with newest nodal roots exposed: 100%
Hybrid corn [2]; [4]
  Dry weight of nodes 1 to 3: 2.5
  Dry weight of nodes 4 to 7: 14.4
  Total dry weight: 16.9
  Total roots: 53.2
Hybrid corn [2]; [5]
  Dry weight of nodes 1 to 3: 1.7
  Dry weight of nodes 4 to 7: 10.1
  Total dry weight: 11.8
  Total roots: 39
Hybrid corn [3]; 1 day before treatment (baseline)
  root count, Treated Compared to Untreated % of Control: 100.2 % of Control
Hybrid corn [3]; 4 days after treatment
  root count, Treated Compared to Untreated % of Control: 105.6 % of Control
Hybrid corn [3]; 7 days after treatment
  root count, Treated Compared to Untreated % of Control: 105.5 % of Control
Hybrid corn [3]; 13 days after treatment
  root count, Treated Compared to Untreated % of Control: 107.8 % of Control
